Test results from patent US20050176655A1, “Novel macrolide derivatives havaing effect of potentiating antifungal activity” (priority 2002, published 2005).

Experiments:
Assay in all cases: Paper disk method, enhancing action for activities of azole antifungal agents
Format in all cases: cell-based
[1] = tested on: Aspergillus niger ATCC 6275; conditions: 48 hours; for Inhibition activity (inhibition ring mm) A. niger ATCC 6275 GYF / Transparency of the inhibition ring A. niger ATCC 6275 GYF: fluconazole 10 μg/ml; for Inhibition activity (inhibition ring mm) A. niger ATCC 6275 GYM / Transparency of the inhibition ring A. niger ATCC 6275 GYM: miconazole 0.1 μg/ml
Procedure: (§1) Test organisms used were Candida albicans ATCC 64548, fluconazole resistant Candida albicans ATCC 64550 and Aspergillus niger ATCC 6275. Candida spp. were cultured in Waksman broth (glucose 2.0%, peptone 0.5%, dry yeast 0.3%, meat extract 0.5%, NaCl 0.5% and CaCO3 0.3%, pH 7.0) at 27° C. for 40 hours, then 0.1% thereof was inoculated on GY agar medium (glucose 1.0%, yeast extract 0.5% and agar 0.8%, pH 6.0). Spore suspension 0.2% of Aspergillus niger ATCC 6275 was inoculated on GY agar medium.
(§2) Azole antifungal agents used were miconazole (Sigma Inc., the U.S.) and fluconazole (ICN Pharmaceuticals, Inc., the U.S.), and were added at concentrations without affecting growth on each test organisms follows.
Aspergillus niger ATCC 6275: miconazole 0.1 μg/ml or fluconazole 10 μg/ml.
(§3) In the above medium, a medium added with miconazole to GY medium (control) is designated as GYM, and a medium added with fluconazole is designated as GYF. Activities were assessed by means of paper disk method (thickness: 8 mm, ADVANTEC MFS INC., Japan). Diameter of inhibition ring is expressed with mm unit after culturing Candida spp. for 24 hours and Aspergillus niger ATCC 6275 for 48 hours. Transparency of the inhibition ring is assessed with 5 degrees of A, B, C, D and E (transparence<A<B<C<D<E<opaque).

[2] = tested on: fluconazole resistant Candida albicans ATCC 64550; conditions: 50 μg/8 mm disk, 24 hours
Procedure: as §1, §2
Candida albicans ATCC 64550: miconazole 0.15 μg/ml or fluconazole 30 μg/ml.
as §3

[3] = tested on: Candida albicans ATCC 64548; conditions: GYM, miconazole 0.03 μg/ml, 24 hours
Procedure: as §1, §2
Candida albicans ATCC 64548: miconazole 0.03 μg/ml or fluconazole 0.5 μg/ml.
as §3

[4] = 50 μg/8 mm disk, GY medium (control, no azole)

SMILES | Inhibition activity (inhibition ring mm) A. niger ATCC 6275 GYF ([1]; 10 μg/8 mm disk) [mm] | Transparency of the inhibition ring A. niger ATCC 6275 GYF ([1]; 10 μg/8 mm disk) | Inhibition activity (inhibition ring mm) A. niger ATCC 6275 GYF ([1]; 50 μg/8 mm disk) [mm] | Transparency of the inhibition ring A. niger ATCC 6275 GYF ([1]; 50 μg/8 mm disk) | Inhibition activity (inhibition ring mm) A. niger ATCC 6275 GYM ([1]; 50 μg/8 mm disk) [mm] | Transparency of the inhibition ring A. niger ATCC 6275 GYM ([1]; 50 μg/8 mm disk) | Inhibition activity (inhibition ring mm) C. albicans ATCC 64548 GYM ([3]; 50 μg/8 mm disk) [mm] | Transparency of the inhibition ring C. albicans ATCC 64548 GYM ([3]; 50 μg/8 mm disk) | also measured
CCC1OC1(C)C1OC(=O)C(C)C(OC2CC(C)(OC)C(OS(=O)(=O)Cc3ccccc3)C(C)O2)C(C)C(OC2OC(C)CC(N(C)C)C2O)C2(C)CC(C)=C(O2)C1C (stereo not drawn) [Compound 780, 4″-O-benzylsulfonyl-12,13-epoxy-8,9-anhydro-pseudoerythromycin A. 6,9-hemiketal] | 11 | E (Growth of test organism was inhibited 35% or less.) | 12 | E (Growth of test organism was inhibited 35% or less.) | 14 | E (Growth of test organism was inhibited 35% or less.) | – | – | Inhibition activity (inhibition ring mm) A. niger ATCC 6275 GYM ([1]; 10 μg/8 mm disk): 14 mm; Transparency of the inhibition ring A. niger ATCC 6275 GYM ([1]; 10 μg/8 mm disk): E (Growth of test organism was inhibited 35% or less.); Inhibition activity (inhibition ring mm) A. niger ATCC 6275 GY [1, 4]: 12 mm; Transparency of the inhibition ring A. niger ATCC 6275 GY [1, 4]: E (Growth of test organism was inhibited 35% or less.); Inhibition activity (inhibition ring mm) C. albicans ATCC 64550 GYF ([2]; GYF, fluconazole 30 μg/ml): 14 mm; Transparency of the inhibition ring C. albicans ATCC 64550 GYF ([2]; GYF, fluconazole 30 μg/ml): C (Growth of test organism was inhibited 55% or more and 75% or less.); Inhibition activity (inhibition ring mm) C. albicans ATCC 64550 GYM ([2]; GYM, miconazole 0.15 μg/ml): 12 mm; Transparency of the inhibition ring C. albicans ATCC 64550 GYM ([2]; GYM, miconazole 0.15 μg/ml): C (Growth of test organism was inhibited 55% or more and 75% or less.)
CC[C@H]1OC(=O)[C@H](C)[C@@H](O[C@H]2C[C@@](C)(OC)[C@@H](O)[C@H](C)O2)[C@H](C)[C@@H](O[C@@H]2O[C@H](C)C[C@H](N(C)C/C=C/CO/N=C3\[C@H](C)C[C@@](C)(O)[C@H](O[C@@H]4O[C@H](C)C[C@H](N(C)C)[C@H]4O)[C@@H](C)[C@H](O[C@H]4C[C@@](C)(OC)[C@@H](O)[C@H](C)O4)[C@@H](C)C(=O)O[C@H](CC)[C@@](C)(O)[C@H](O)[C@H]3C)[C@H]2O)[C@](C)(O)C[C@@H](C)C(=O)[C@H](C)[C@@H](O)[C@]1(C)O [Compound 765, 3′-de-N-methyl-3′-N-{4-9(E)oxime-erythro-mycin A}-2(E)-butenyl-erythromycin A] | 14 | E (Growth of test organism was inhibited 35% or less.) | 21 | E (Growth of test organism was inhibited 35% or less.) | – | – | 14 | E (Growth of test organism was inhibited 35% or less.) | Inhibition activity (inhibition ring mm) A. niger ATCC 6275 GYM ([1]; 100 μg/8 mm disk): 14 mm; Transparency of the inhibition ring A. niger ATCC 6275 GYM ([1]; 100 μg/8 mm disk): E (Growth of test organism was inhibited 35% or less.)
CCC1OC1(C)C1OC(=O)C(C)C(OC2CC(C)(OC)C(OS(=O)(=O)Cc3ccccc3)C(C)O2)C(C)C(OC2OC(C)CC(N(C)C)C2OC(C)=O)C2(C)CC(C)=C(O2)C1C (stereo not drawn) [Compound 775, 2′-O-acetyl-4″-O-benzylsulfonyl-12,13-epoxide-8,9-anhydro-pseudoerythromycin A. 6,9-hemiketal] | 16 | E (Growth of test organism was inhibited 35% or less.) | 16 | E (Growth of test organism was inhibited 35% or less.) | 16 | D (Growth of test organism was inhibited 35% or more and 55% or less.) | 10 | E (Growth of test organism was inhibited 35% or less.) | –
CCC1OC(=O)C(C)C(OC2CC(C)(OC)C(O)C(C)O2)C(C)C(OC2OC(C)CC(N(C)C)C2O)C(C)(O)CC(C)C(=NOCC=CCN2CCNCC2)C(C)C(O)C1(C)O (stereo not drawn) [Compound 762] | 14 | E (Growth of test organism was inhibited 35% or less.) | 15 | E (Growth of test organism was inhibited 35% or less.) | – | – | 13 | D (Growth of test organism was inhibited 35% or more and 55% or less.) | –
CCC1OC(=O)C(C)C(OC2CC(C)(OC)C(O)C(C)O2)C(C)C(OC2OC(C)CC(N(C)CCN(C)C3CC(C)OC(OC4C(C)C(OC5CC(C)(OC)C(O)C(C)O5)C(C)C(=O)OC(CC)C(C)(O)C(O)C(C)C(=O)C(C)CC4(C)O)C3O)C2O)C(C)(O)CC(C)C(=O)C(C)C(O)C1(C)O (stereo not drawn) [Compound 752, 3′-de-N-methyl-3′-N-{2-amino-(3′-de-N-methyl-erythromycin A)}ethyl-erythromycin A] | – | – | 17 | E (Growth of test organism was inhibited 35% or less.) | – | – | – | – | Inhibition activity (inhibition ring mm) C. albicans ATCC 64548 GYM ([3]; 100 μg/8 mm disk): 12 mm; Transparency of the inhibition ring C. albicans ATCC 64548 GYM ([3]; 100 μg/8 mm disk): E (Growth of test organism was inhibited 35% or less.)
CCC1OC(=O)C(C)C(OC2CC(C)(OC)C(O)C(C)O2)C(C)C(OC2OC(C)CC(N(C)C)C2O)C(C)(O)CC(C)C(=NOCC=CCN2CCN(CC=CCON=C3C(C)CC(C)(O)C(OC4OC(C)CC(N(C)C)C4O)C(C)C(OC4CC(C)(OC)C(O)C(C)O4)C(C)C(=O)OC(CC)C(C)(O)C(O)C3C)CC2)C(C)C(O)C1(C)O (stereo not drawn) [Compound 760, 9(E)-4-piperazine-{N-4-(9(E)-oxime-erythromycin A-2(E)butenyl)}-2-butenyloxime-erythromycin A] | 15 | E (Growth of test organism was inhibited 35% or less.) | 16 | E (Growth of test organism was inhibited 35% or less.) | – | – | 14 | D (Growth of test organism was inhibited 35% or more and 55% or less.) | Inhibition activity (inhibition ring mm) C. albicans ATCC 64548 GYM ([3]; 10 μg/8 mm disk): 10 mm; Transparency of the inhibition ring C. albicans ATCC 64548 GYM ([3]; 10 μg/8 mm disk): E (Growth of test organism was inhibited 35% or less.)
